From PMC3509364 (Angewandte Chemie (International ed. in English), 2012)

Target: PAK1 (Homo sapiens, UniProt Q13153)
Test: PAK1 kinase inhibition, IC50 curves at 1 µM ATP
Type: biochemical

PAK1, sequence (Q13153 whole entry): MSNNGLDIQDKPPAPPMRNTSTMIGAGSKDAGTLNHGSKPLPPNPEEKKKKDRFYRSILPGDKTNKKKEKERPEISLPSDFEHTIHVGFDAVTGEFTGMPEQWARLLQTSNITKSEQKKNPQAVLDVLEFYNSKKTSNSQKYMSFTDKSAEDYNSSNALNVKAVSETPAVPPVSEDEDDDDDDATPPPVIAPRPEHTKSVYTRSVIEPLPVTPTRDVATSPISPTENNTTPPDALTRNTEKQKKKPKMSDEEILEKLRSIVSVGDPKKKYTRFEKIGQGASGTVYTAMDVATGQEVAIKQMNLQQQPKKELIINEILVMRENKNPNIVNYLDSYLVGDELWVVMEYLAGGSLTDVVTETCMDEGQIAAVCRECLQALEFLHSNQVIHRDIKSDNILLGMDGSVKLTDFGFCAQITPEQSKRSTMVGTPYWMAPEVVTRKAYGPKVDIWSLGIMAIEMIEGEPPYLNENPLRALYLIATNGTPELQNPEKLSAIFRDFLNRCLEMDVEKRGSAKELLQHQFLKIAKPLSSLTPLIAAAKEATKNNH

Substance: SeCN
- fold weaker inhibitor of PAK1 than NCS complex 1 (ratio of IC50 values, 1 µM ATP): 7.5 fold
- IC50 (read-out: IC50 against PAK1, 1 µM ATP (Figure 3)): 0.625 ± 0.06 µM
